Data set [1] deals with T1, MeNINV1 (Manihot esculenta, UniProt G5DC09).
T1 construct: gene NINV1; full-length ORF in pDR195, expressed in invertase-deficient yeast SEY2102; crude enzyme supernatant, empty-vector control
T1 sequence (G5DC09 1-685): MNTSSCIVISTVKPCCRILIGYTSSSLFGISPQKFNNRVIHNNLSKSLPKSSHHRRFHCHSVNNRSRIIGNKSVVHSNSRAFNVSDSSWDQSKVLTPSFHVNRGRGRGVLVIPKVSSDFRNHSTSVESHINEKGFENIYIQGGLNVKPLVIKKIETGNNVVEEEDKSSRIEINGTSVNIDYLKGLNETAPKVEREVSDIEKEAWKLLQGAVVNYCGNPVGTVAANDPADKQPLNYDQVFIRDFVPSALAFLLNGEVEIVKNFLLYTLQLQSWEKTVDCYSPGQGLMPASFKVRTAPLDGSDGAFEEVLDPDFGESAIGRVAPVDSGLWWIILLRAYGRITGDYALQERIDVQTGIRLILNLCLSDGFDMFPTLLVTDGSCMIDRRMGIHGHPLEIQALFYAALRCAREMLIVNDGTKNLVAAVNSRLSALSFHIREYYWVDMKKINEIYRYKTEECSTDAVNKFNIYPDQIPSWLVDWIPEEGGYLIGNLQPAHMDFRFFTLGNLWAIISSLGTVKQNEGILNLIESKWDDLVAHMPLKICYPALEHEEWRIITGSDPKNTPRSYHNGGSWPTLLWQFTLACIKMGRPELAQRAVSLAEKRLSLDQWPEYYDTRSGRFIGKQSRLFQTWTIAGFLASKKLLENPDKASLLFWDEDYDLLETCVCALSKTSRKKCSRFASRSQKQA
Briefly: DNS reducing sugar assay, crude yeast extract. As to conditions: product inhibition of sucrose hydrolysis; pH 6.5. It is filed as biochemical.

Substrate in data set [2]: OC[C@H]1O[C@@](CO)(O[C@H]2O[C@H](CO)[C@@H](O)[C@H](O)[C@H]2O)[C@@H](O)[C@@H]1O
Description: DNS reducing sugar assay, crude yeast extract. As to conditions: pH 6.5, optimum temperature 40 °C. Format: biochemical, Manihot esculenta.

Consider `OCC1(O)OC[C@@H](O)[C@@H](O)[C@@H]1O` (some centres unmarked) [fructose], for which the “DNS reducing sugar assay, crude yeast extract” value in data set [1] is listed as “The addition of fructose, a decomposition product of sucrose, to the reaction solution inhibited”.

B1: MeNINV1 (Manihot esculenta) (protein)
chain: T1 sequence (G5DC09 1-685)
notes: full-length ORF in pDR195, expressed in invertase-deficient yeast SEY2102; crude enzyme supernatant, empty-vector control
One may read the Km as the substrate concentration at which the rate is half of its maximum. Regarding B1, the Michaelis constant (Km) in data set [2] worked out at 10.59 mM.

Values taken from paper PMC9003190, “MeNINV1: An Alkaline/Neutral Invertase Gene of Manihot esculenta, Enhanced Sucrose Catabolism and Promoted Plant Vegetative Growth in Transgenic Arabidopsis” (Plants, 2022).
